Common to all, as to format: in vivo, Sprague-Dawley male rats
One assay deals with restraint ulcer. Briefly: Inhibition of restraint ulcer in rats. To be noted: Rattus norvegicus. As to the method: 1. […] Six Sprague-Dawley male rats (100-200 g) fasted for 24 hours were used for each group.
A square flexible small-mesh wire netting was used for immobilization. After 4 hours immobilization the rats were sacrificed, their stomachs were removed, and lesions counted under a dissecting microscope.
The compounds were administered subcutaneously (s.c.) immediately before the immobilization or orally (os) one hour before.

The test system of a further assay is gastric secretion. Briefly: Inhibition of gastric secretion in rats (pylorus ligature technique). The note with it: Rattus norvegicus, sc, s.c. at the time of pylorus ligature, 4 h, read-out: Antisecretory ED50 s.c. As to the method: 2. […] Gastric antisecretory activity was evaluated in rats by the pylorus ligature technique.
Six Sprague-Dawley male rats (110-130 g) were used for each group. Twenty-four hours before the test, the rats were deprived of food but their water supply was maintained.
On the day of the operation, the pylorus was ligated under light ether anaesthesia. Four hours after the ligature, the rats were sacrificed, the stomach secretion was collected and centrifuged at 3500 r.p.m. for 10 minutes, and the volume, less sediment, was determined. The amount of the free hydrochloric acid in the gastric juice was determined by titration against 0.01N sodium hydroxide, using Topfer's Indicator.
Each compound was injected subcutaneously at the time of ligature.

Assay [1] deals with chromodacryorhea induced by carbacholine. Description: Anticholinergic activity in rats (antagonism against chromodacryorhea induced by carbacholine). To be noted: for ED50: Rattus norvegicus, po, read-out: anticholinergic ED50 p.o. (B); for B/A (ratio of ED50's for oral anti-cholinergic and anti-ulcer activities): B = anticholinergic ED50, A = antiulcer ED50. The source says: 3. Anticholinergic activity in rats. […] J. Pharm. […] From 3 to 5 Sprague-Dawley male rats, 250 g body weight, have been employed for each group. […] The compound reference numbers are explained in the Examples below.

Where [2] appears, read: po, p.o. one hour before 4 h immobilization, read-out: Antiulcer ED50 p.o (A).
The mark [3] stands for this setting: sc, s.c. immediately before 4 h immobilization, read-out: Antiulcer ED50 s.c.
[4] abbreviates: rats, p.o., carbacholine-induced chromodacryorhea.

Like-named read-outs stand apart in the source and are kept apart here.

As a reminder, the ED50 is the dose that gives a 50% effect, or the effect in half of the subjects. Regarding `O=C(NC1CC1)N1CCc2[nH]cnc2C1` [compound 1365, 5-(N-cyclopropyl-carbamoyl)-4,5,6,7-tetrahydro-imidazo-[4,5-c]-pyridine], the 50% effective dose (ED50) in the assay with restraint ulcer (setting [2]) came to 3.8 mg/kg; with restraint ulcer (setting [3]), 2 mg/kg; in the assay with gastric secretion, 50 mg/kg; in assay [1] (setting [4]), 21 mg/kg. The “B/A (ratio of ED50's for oral anti-cholinergic and anti-ulcer activities)” value in assay [1] (rats, p.o.) is 5.5.

Turning to `CC(C)NC(=O)N1CCc2[nH]cnc2C1c1ccncc1` (stereo not shown) [compound 1467, 4-(4-pyridyl)-5-(N-isopropyl-carbamoyl)-4,5,6,7-tetrahydroimidazo-[4,5-c]-pyridine], the median effective dose (ED50) was 50 mg/kg in the assay on restraint ulcer (setting [2]), 7 mg/kg with restraint ulcer (setting [3]) and > 50 mg/kg with gastric secretion.

For the compound `CCCNC(=S)N1CCc2[nH]cnc2C1` [compound 1361, 5-(N-n-propyl-thiocarbamoyl)-4,5,6,7-tetrahydro-imidazo-[4,5-c]-pyridine], the results for the ED50 in the assay with restraint ulcer (setting [2]), in the assay on restraint ulcer (setting [3]) and in the assay with gastric secretion were 25 mg/kg, 10 mg/kg and 50 mg/kg, respectively.

With `CNC(=O)N1CCc2[nH]cnc2C1` [compound 1350, 5-(N-methyl-carbamoyl)-4,5,6,7-tetrahydro-imidazo-[4,5-c]-pyridine], the ED50 with restraint ulcer (setting [2]) is 5.6 mg/kg; with restraint ulcer (setting [3]), 6.5 mg/kg; with gastric secretion, > 50 mg/kg; in assay [1] (setting [4]), > 100 mg/kg. Further, in assay [1] (rats, p.o.), the “B/A (ratio of ED50's for oral anti-cholinergic and anti-ulcer activities)” value is on record as > 18.

Consider `CCC1c2nc[nH]c2CCN1C(=N)NC(=O)c1ccccc1` (stereo not shown) [compound 1448, 4-Ethyl-5-(N-benzoylguanyl)-4,5,6,7-tetrahydroimidazo-[4,5-c]-pyridine], for which the median effective dose (ED50) in the assay with restraint ulcer (setting [2]) is 22 mg/kg; in the assay on restraint ulcer (setting [3]), > 10 mg/kg; with gastric secretion, > 50 mg/kg; in assay [1] (setting [4]) it was > 100 mg/kg. Besides, the “B/A (ratio of ED50's for oral anti-cholinergic and anti-ulcer activities)” value in assay [1] (rats, p.o.) is reported as > 4.

`CCC1c2c(ncn2C)CCN1C(=O)NC(C)C` (stereo not shown) [compound 1404, 3-Methyl-4-ethyl-5-(N-isopropyl-carbamoyl)-4,5,6,7-tetrahydroimidazo-[4,5-c]-pyridine]: the results for the ED50 in the assay with restraint ulcer (setting [2]), with restraint ulcer (setting [3]) and in the assay on gastric secretion were 34 mg/kg, 10 mg/kg and > 50 mg/kg, respectively.

On to `O=C(NC1CCCC1)N1CCc2[nH]cnc2C1` [compound 1366, 5-(N-cyclopentyl-carbamoyl)-4,5,6,7-tetrahydro-imidazo-[4,5-c]-pyridine], for which the ED50 stood at 3.8 mg/kg in the assay on restraint ulcer (setting [2]), 0.75 mg/kg in the assay with restraint ulcer (setting [3]), 17 mg/kg in the assay on gastric secretion and 10 mg/kg in assay [1] (setting [4]). In addition, in assay [1] (rats, p.o.), the “B/A (ratio of ED50's for oral anti-cholinergic and anti-ulcer activities)” value is reported as 2.6.

For the compound `CC(C)NC(=S)N1CCc2[nH]cnc2C1C1CCCCC1` (stereo not shown) [compound 1367, 4-Cyclohexyl-5-(N-isopropyl-thiocarbamoyl)-4,5,6,7-tetrahydro-imidazo-[4,5-c]-pyridine], the ED50 with restraint ulcer (setting [2]) was 6 mg/kg; with restraint ulcer (setting [3]), 3.3 mg/kg; with gastric secretion, > 50 mg/kg; in assay [1] (setting [4]) it was > 100 mg/kg. In addition, in assay [1] (rats, p.o.), the “B/A (ratio of ED50's for oral anti-cholinergic and anti-ulcer activities)” value is > 18.

On to `CCC1c2c(ncn2CC)CCN1C(=S)NC(C)C` (stereo not shown) [compound 1399, 3,4-Diethyl-5-(N-isopropyl-thiocarbamoyl)-4,5,6,7-tetrahydroimidazo-[4,5-c]-pyridine], for which the ED50 was 4 mg/kg in the assay on restraint ulcer (setting [2]), 3.5 mg/kg in the assay with restraint ulcer (setting [3]) and > 100 mg/kg in assay [1] (setting [4]). In assay [1] (rats, p.o.), the “B/A (ratio of ED50's for oral anti-cholinergic and anti-ulcer activities)” value is listed as > 25.

In the case of `S=C(NC1CCCC1)N1CCc2[nH]cnc2C1` [compound 1360, 5-(N-cyclopentyl-thiocarbamoyl)-b 4,5,6,7-tetrahydro-imidazo-[4,5-c]-pyridine], the ED50 in the assay on restraint ulcer (setting [2]) was 5.6 mg/kg; in the assay with restraint ulcer (setting [3]), > 10 mg/kg; in the assay with gastric secretion it was 19 mg/kg; in assay [1] (setting [4]), 76 mg/kg. Moreover, in assay [1] (rats, p.o.), the “B/A (ratio of ED50's for oral anti-cholinergic and anti-ulcer activities)” value was 13.

On to `CCC1c2nc[nH]c2CCN1C(=S)NC(C)C` (stereo not shown) [compound 1184, 4-Ethyl-5-(N-isopropyl-thiocarbamoyl)-4,5,6,7-tetrahydro-imidazo-[4,5-c]-pyridine], for which the ED50 stood at 11 mg/kg with restraint ulcer (setting [2]), 0.64 mg/kg in the assay on restraint ulcer (setting [3]), 22 mg/kg in the assay on gastric secretion and 10 mg/kg in assay [1] (setting [4]).

Regarding `CNC(=S)NCCSCc1nc[nH]c1C` [Methiamide, reference compound], the ED50 was determined as 64 mg/kg with restraint ulcer (setting [2]), 14 mg/kg in the assay with restraint ulcer (setting [3]), 60 mg/kg in the assay with gastric secretion and 85 mg/kg in assay [1] (setting [4]). The “B/A (ratio of ED50's for oral anti-cholinergic and anti-ulcer activities)” value in assay [1] (rats, p.o.) is given as 1.3; in assay [1] (rats, p.o., listed as methiamide), “about 2”.

As for `CNC(=S)N1CCc2[nH]cnc2C1` [compound 1068, 5-(N-methyl-thiocarbamoyl)-4,5,6,7-tetrahydroimidazo-[4,5-c]-pyridine], the ED50 with restraint ulcer (setting [2]) is 2.4 mg/kg; with restraint ulcer (setting [3]), 0.6 mg/kg; with gastric secretion, > 50 mg/kg; in assay [1] (setting [4]), > 100 mg/kg. In assay [1] (rats, p.o.), the “B/A (ratio of ED50's for oral anti-cholinergic and anti-ulcer activities)” value is on record as > 40.

In the case of `S=C(Nc1ccccc1)N1CCc2[nH]cnc2C1` [compound 1116, 5-(N-Phenyl-thiocarbamoyl)-4,5,6,7-tetrahydro-imidazo-[4,5-c]-pyridine], the values for the ED50 in the assay on restraint ulcer (setting [2]), in the assay with restraint ulcer (setting [3]) and in the assay with gastric secretion were > 34 mg/kg, > 10 mg/kg and 23 mg/kg, respectively.

`CN1[C@@H]2CC[C@H]1C[C@@H](OC(=O)C(CO)c1ccccc1)C2` (stereo partly shown) [Atropine, reference compound]: the ED50 in the assay on restraint ulcer (setting [2]) is 0.4 mg/kg; with restraint ulcer (setting [3]), 0.02 mg/kg; in the assay with gastric secretion it was 0.1 mg/kg; in assay [1] it was 0.8 mg/kg. For the same compound, the “B/A (ratio of ED50's for oral anti-cholinergic and anti-ulcer activities)” value in assay [1] (rats, p.o.) was 2; in assay [1] (rats, p.o., listed as atropine), “about 2”.

For the compound `CCC1c2nc[nH]c2CCN1C(=O)NC(C)C` (stereo not shown) [compound 1316, 4-Ethyl-5-(N-isopropyl-carbamoyl)-4,5,6,7-tetrahydro-imidazo-[4,5-c]-pyridine], the ED50 amounted to 6.6 mg/kg with restraint ulcer (setting [2]), 0.75 mg/kg in the assay on restraint ulcer (setting [3]), 50 mg/kg in the assay with gastric secretion and 70 mg/kg in assay [1] (setting [4]). Besides, in assay [1] (rats, p.o.), the “B/A (ratio of ED50's for oral anti-cholinergic and anti-ulcer activities)” value stood at 10.

On to `CC(C)NC(=S)N1CCc2[nH]cnc2C1` [compound 1087, 5-(N-isopropyl-thiocarbamoyl)-4,5,6,7-tetrahydro-imidazo-[4,5-c]-pyridine], for which the ED50 was 3.1 mg/kg in the assay with restraint ulcer (setting [2]), 0.9 mg/kg in the assay on restraint ulcer (setting [3]), 6 mg/kg in the assay on gastric secretion and 2 mg/kg in assay [1] (setting [4]). For the same compound, in assay [1] (rats, p.o.), the “B/A (ratio of ED50's for oral anti-cholinergic and anti-ulcer activities)” value is recorded as 0.6.

For the compound `N=C(NC(=O)c1ccccc1)N1CCc2[nH]cnc2C1` [compound 1450, 5-(N-benzoylguanyl)-4,5,6,7-tetrahydroimidazo-[4,5-c]-pyridine], the median effective dose (ED50) with restraint ulcer (setting [2]) is 34 mg/kg; in the assay on restraint ulcer (setting [3]), > 10 mg/kg; in the assay on gastric secretion it was > 50 mg/kg.

`CCNC(=S)N1CCc2[nH]cnc2C1` [compound 1293, 5-(N-ethyl-thiocarbamoyl)-4,5,6,7-tetrahydro-imidazo-[4,5-c]-pyridine]: the ED50 in the assay on restraint ulcer (setting [2]) was found to be 25 mg/kg; with restraint ulcer (setting [3]), 6 mg/kg; with gastric secretion, 8 mg/kg.

In the case of `CC(C)NC(=O)N1CCc2[nH]cnc2C1` [compound 1348, 5-(N-isopropyl-carbamoyl)-4,5,6,7-tetrahydro-imidazo-[4,5-c]-pyridine], the ED50 with restraint ulcer (setting [2]) turned out to be 0.55 mg/kg; in the assay on restraint ulcer (setting [3]) it was 0.1 mg/kg; in the assay on gastric secretion it was 18 mg/kg; in assay [1] (setting [4]), 7.8 mg/kg. Also, the “B/A (ratio of ED50's for oral anti-cholinergic and anti-ulcer activities)” value in assay [1] (rats, p.o.) worked out at 14.

As to `CC(C)NC(=S)N1CCc2ncn(C)c2C1` [compound 1286], the ED50 in the assay with restraint ulcer (setting [2]) was 8.5 mg/kg; with restraint ulcer (setting [3]), 0.85 mg/kg; in the assay on gastric secretion, 34 mg/kg; in assay [1] (setting [4]), > 50 mg/kg. Also, the “B/A (ratio of ED50's for oral anti-cholinergic and anti-ulcer activities)” value in assay [1] (rats, p.o.) is > 5.8.

For the compound `S=C(NC1CC1)N1CCc2[nH]cnc2C1` [compound 1359, 5-(N-cyclopropyl-thiocarbamoyl)-4,5,6,7-tetrahydro-imidazo-[4,5-c]-pyridine], the ED50 in the assay on restraint ulcer (setting [2]) amounted to 1.8 mg/kg; in the assay on restraint ulcer (setting [3]) it was 5 mg/kg; in the assay on gastric secretion, 40 mg/kg; in assay [1] (setting [4]) it was 45.5 mg/kg. In addition, the “B/A (ratio of ED50's for oral anti-cholinergic and anti-ulcer activities)” value in assay [1] (rats, p.o.) is 25.

Regarding `CCC1c2c(ncn2CC)CCN1C(=O)NC(C)C` (stereo not shown) [compound 1400, 3,4-Diethyl-5-(N-isopropyl-carbamoyl)-4,5,6,7-tetrahydro-imidazo-[4,5-c]-pyridine], the ED50 in the assay on restraint ulcer (setting [2]) was 18 mg/kg; in the assay with restraint ulcer (setting [3]) it was 10 mg/kg; with gastric secretion, 50 mg/kg; in assay [1] (setting [4]), > 100 mg/kg. Also, the “B/A (ratio of ED50's for oral anti-cholinergic and anti-ulcer activities)” value in assay [1] (rats, p.o.) is recorded as > 5.5.
